We go through 1 substance from paper PMC7840603, “Local Stabilization of Hypoxia-Inducible Factor-1α Controls Intestinal Inflammation via Enhanced Gut Barrier Function and Immune Regulation” (Frontiers in Immunology, 2021).

Common to all, as to test: prolyl hydroxylation assay of HIF-1α peptide, VBC binding by fluorescence polarization
Common to all, as to type: biochemical
(In fluorescence polarisation assays a small probe gives low polarisation when free and higher when bound to something large.)

One assay has as its target T1, HIF-PHD2 (Homo sapiens, UniProt Q9GZT9).
T1 construct: gene EGLN1

For another assay, the target named is T2, HIF-PHD1 (Homo sapiens, UniProt Q96KS0).
T2 construct: gene EGLN2

A further assay deals with T3, HIF-PHD3 (Homo sapiens, UniProt Q9H6Z9).
T3 construct: gene EGLN3
T3 sequence (Q9H6Z9 whole entry): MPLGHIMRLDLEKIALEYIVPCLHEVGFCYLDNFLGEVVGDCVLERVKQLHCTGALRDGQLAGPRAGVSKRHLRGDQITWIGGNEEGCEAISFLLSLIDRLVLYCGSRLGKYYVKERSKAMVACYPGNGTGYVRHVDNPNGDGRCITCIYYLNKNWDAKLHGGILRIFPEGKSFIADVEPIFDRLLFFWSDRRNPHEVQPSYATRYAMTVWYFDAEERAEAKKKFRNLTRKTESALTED

T2 sequence (Q96KS0 whole entry): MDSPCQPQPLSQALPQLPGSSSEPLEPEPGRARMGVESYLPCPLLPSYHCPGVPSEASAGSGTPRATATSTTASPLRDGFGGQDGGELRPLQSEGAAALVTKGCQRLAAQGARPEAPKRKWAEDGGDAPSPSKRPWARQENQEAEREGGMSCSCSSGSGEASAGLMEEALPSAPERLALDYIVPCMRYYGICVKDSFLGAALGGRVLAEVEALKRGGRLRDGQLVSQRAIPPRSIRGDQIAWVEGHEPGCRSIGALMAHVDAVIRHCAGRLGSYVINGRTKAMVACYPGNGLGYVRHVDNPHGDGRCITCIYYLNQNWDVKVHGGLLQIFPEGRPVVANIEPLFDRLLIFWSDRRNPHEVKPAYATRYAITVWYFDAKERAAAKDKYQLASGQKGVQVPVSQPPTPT
T1 sequence (Q9GZT9 2-426): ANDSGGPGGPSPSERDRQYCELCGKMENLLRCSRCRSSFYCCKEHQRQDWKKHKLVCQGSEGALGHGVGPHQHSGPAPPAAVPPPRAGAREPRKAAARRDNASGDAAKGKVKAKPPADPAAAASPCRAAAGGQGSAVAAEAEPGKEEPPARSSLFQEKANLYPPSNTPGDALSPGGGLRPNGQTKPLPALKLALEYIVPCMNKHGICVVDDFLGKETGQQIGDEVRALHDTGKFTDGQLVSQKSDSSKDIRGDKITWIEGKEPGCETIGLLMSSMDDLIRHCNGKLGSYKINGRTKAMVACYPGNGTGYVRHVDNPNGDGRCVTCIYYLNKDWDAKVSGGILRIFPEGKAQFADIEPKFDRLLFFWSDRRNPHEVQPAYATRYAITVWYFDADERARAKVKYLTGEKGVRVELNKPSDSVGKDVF

Regarding CG-598, the IC50 (usually the concentration that gives 50% inhibition) on HIF-PHD2 amounted to 20 nM; on HIF-PHD1, 30 nM; on HIF-PHD3, 80 nM.
